Like-named read-outs stand apart in the source and are kept apart here.
Tested on: C. elegans
Test: microbe, parasite or virus in culture
Conditions: Caenorhabditis elegans
[1] = 0 h, read-out: Percentage of motility inhibition 0 h, Table S2, C. elegans SS assay, 110 μM, 0 h, averages of 4 data points
[2] = 24 h, read-out: Percentage of motility inhibition 24 h, Table S2, C. elegans SS assay, 110 μM, 24 h, averages of 4 data points
[3] = 0 h, read-out: Percentage of motility inhibition 0 h
[4] = 24 h, read-out: Percentage of motility inhibition 24 h

| Structure (SMILES) | inhibition at 110 µM [1] | inhibition at 110 µM [2] | inhibition at 110 µM [3] | inhibition at 110 µM [4] |
| --- | --- | --- | --- | --- |
| C=C1C[C@@]23CC[C@H]4[C@@](C)(CCC[C@@]4(C)C(=O)O)[C@@H]2CC[C@@H]1C3 [Kaurenoic acid] | 0% | 7% |  |  |
| NC(=O)NC1NC(=O)NC1=O (stereo not drawn) [Allantoin] | 0% | 13% |  |  |
| CC(=O)OC/C=C(C)/C=C/C=C(C)/C=C/C1=C(C)CCCC1(C)C [Retinyl acetate] | 0% | 0% |  |  |
| C[C@@H]1CC[C@]2(C(=O)O)CC[C@]3(C)C(=CC[C@@H]4[C@@]5(C)CC[C@H](O)[C@@](C)(CO)[C@@H]5CC[C@]43C)[C@@H]2[C@]1(C)O [Rotundic acid] | 24% | 45% |  |  |
| C[C@@H]1O[C@@H](OC[C@H]2O[C@@H](Oc3cc(O)c4c(c3)O[C@H](c3ccc(O)c(O)c3)CC4=O)[C@H](O)[C@@H](O)[C@@H]2O)[C@H](O)[C@H](O)[C@H]1O [Eriocitrin] | 54% | 16% |  |  |
| O=C(O)[C@H]1O[C@@H](Oc2cc3oc(-c4ccc(O)cc4)cc(=O)c3c(O)c2O)[C@H](O)[C@@H](O)[C@@H]1O [Scutellarin] | 31% | 1% |  |  |
| CC(C)=CCC/C(C)=C/CO [Geraniol] | 0% | 3% |  |  |
| COc1ncnc(NS(=O)(=O)c2ccc(N)cc2)c1OC [Sulfadoxine] | 18% | 5% |  |  |
| O=c1[nH]c(=O)n([C@H]2C[C@H](O)[C@@H](CO)O2)cc1/C=C/Br [Brivudine] |  |  | 6% | 14% |
| O=c1[nH]c2ccccc2o1 [2‐Benzoxazolinone] | 24% | 6% |  |  |
| Cc1ncc(CO)c(CO)c1O [Pyridoxine] | 8% | 0% |  |  |
| C[C@@H]1CC[C@@]2(NC1)O[C@H]1C[C@H]3[C@@H]4CC=C5C[C@@H](O[C@@H]6O[C@H](CO)[C@H](O)[C@H](O[C@@H]7O[C@H](CO)[C@@H](O)[C@H](O)[C@H]7O)[C@H]6O[C@@H]6O[C@@H](C)[C@H](O)[C@@H](O)[C@H]6O)CC[C@]5(C)[C@H]4CC[C@]3(C)[C@H]1[C@@H]2C [Solasonine] | 0% | 0% |  |  |
| COc1cc([C@@H]2[C@H]3CO[C@@]4(O)C(=O)[C@@H]2C=C([C@H]2Oc5cc(O)cc(O)c5C(=O)[C@@H]2O)[C@@H]34)ccc1O [Silydianin] | 17% | 4% |  |  |
| CC(=O)O[C@]12CCC(C)=CC[C@]13CC[C@H]2[C@@](C)(/C=C/C=C(\C)C(=O)O)OC3=O [Pseudolaric Acid A] | 6% | 13% |  |  |
| Cc1cc(C#N)cc(C)c1Oc1nc(Nc2ccc(C#N)cc2)nc(N)c1Br [Etravirine] | 17% | 2% |  |  |
| COc1c(O[C@@H]2O[C@H](CO)[C@@H](O)[C@H](O)[C@H]2O)cc2occ(-c3ccc(O)cc3)c(=O)c2c1O [Tectoridin] | 1% | 11% |  |  |
| CC[C@H]1OC(=O)[C@H](C)[C@@H](O[C@H]2C[C@@](C)(OC)[C@@H](O)[C@H](C)O2)[C@H](C)[C@@H](O[C@@H]2O[C@H](C)C[C@H](N(C)C)[C@H]2O)[C@](C)(O)C[C@@H](C)/C(=N\OCOCCOC)[C@H](C)[C@@H](O)[C@]1(C)O [Roxithromycin] | 22% | 4% |  |  |
| Cn1c([N+](=O)[O-])cnc1COC(N)=O [Ronidazole] | 9% | 0% |  |  |
| C/C=C(/C)C(=O)O[C@H]1C(C)=C[C@]23C(=O)[C@@H](C=C(CO)[C@@H](O)[C@]12O)[C@H]1[C@@H](C[C@H]3C)C1(C)C [Ingenol Mebutate] | 1% | 0% |  |  |
| C[C@@H]1C[C@@H](O)[C@@]2(O)[C@@]13C[C@@H](OC(=O)[C@H]3O)[C@](C)(O)[C@@]21COC1=O [Anisatin] | 0% | 20% |  |  |
| C=C1C[C@]23C[C@@]1(O)CC[C@H]2[C@@]12C=C[C@H](O)[C@@](C)(C(=O)O1)[C@H]2[C@@H]3C(=O)O [Gibberellic acid] | 17% | 22% |  |  |
| O=C(O)CC(O)C(=O)O (stereo not drawn) [Malic acid] | 2% | 14% |  |  |
| CCn1cc(C(=O)O)c(=O)c2cnc(N3CCNCC3)nc21 [Pipemidic acid] | 31% | 14% |  |  |
| COC(=O)c1cccnc1 [Methyl nicotinate] |  |  | 0% | 0% |

Source: article PMC11855827, “High-Throughput Screening of Five Compound Libraries for Anthelmintic Activity and Toxicity Leads to the Discovery of Two Flavonoid Compounds” (International Journal of Molecular Sciences, 2025)
